Results as given in article PMC3386958, “High-throughput Screening and Sensitized Bacteria Identify an M. tuberculosis Dihydrofolate Reductase Inhibitor with Whole Cell Activity” (PLoS ONE, 2012).

Biological target: T1, Mtb dihydrofolate reductase (DHFR) (Mycobacterium tuberculosis, UniProt P9WNX1)
T1 construct: gene folA; recombinant, 6-histidine tag at the amino terminus
T1 sequence (P9WNX1 1-161): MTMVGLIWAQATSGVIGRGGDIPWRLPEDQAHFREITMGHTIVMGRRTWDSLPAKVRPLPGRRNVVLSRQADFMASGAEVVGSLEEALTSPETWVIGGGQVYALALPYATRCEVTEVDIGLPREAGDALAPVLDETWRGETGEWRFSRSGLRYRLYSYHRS
Assay type: biochemical

SMILES: Nc1nc(N)c2cc(C(F)(F)F)ccc2n1 [NC00094221]
- IC50: 22.4 nM
